Measurements from patent US20030050249A1, “Complexes of alpha-6 integrin subunits with small peptides and methods for treating indications resulting from modulation of integrin-mediated responses by altering signal transduction” (priority 2000, published 2003).
Ends that are not written are not given here. Peptide text beside a SMILES is read from it. * marks the point of attachment. For = O=C*

What was measured:
[1] = tested on: rat peritoneal mast cells; assay: Binding of FITC-HK-X to rat peritoneal mast cells; conditions: freshly isolated mast cells, FIG. 3
Protocol: Rat peritoneal mast cells were isolated by infusion of 35 ml of Tyrode's Solution into the peritoneal cavity of anesthetized rats. The rats were then sacrificed by injection of an overdose of anesthetic. The peritoneal cells were harvested, placed into 15 ml centrifuge tubes. The cells were pelleted by centrifugation at 250×g for 10 min at room temperature.
Other cell types were also tested for the ability to bind FITC labeled HK-X on their cell surface.

FPR = molecular target: T1, FPR (Homo sapiens, UniProt P21462); conditions: compared with FMLP; cited from earlier work
T1 sequence (P21462 1-350): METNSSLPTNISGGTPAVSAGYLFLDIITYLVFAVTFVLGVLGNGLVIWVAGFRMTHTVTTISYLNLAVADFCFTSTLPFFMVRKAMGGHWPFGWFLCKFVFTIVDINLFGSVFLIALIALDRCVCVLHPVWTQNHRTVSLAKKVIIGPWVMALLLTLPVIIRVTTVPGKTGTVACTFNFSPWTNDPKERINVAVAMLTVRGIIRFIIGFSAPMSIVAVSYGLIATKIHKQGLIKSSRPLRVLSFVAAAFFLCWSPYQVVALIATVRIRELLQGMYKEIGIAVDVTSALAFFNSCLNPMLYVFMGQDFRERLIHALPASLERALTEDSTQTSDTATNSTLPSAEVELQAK

inflamed lung = conditions: mouse, in vivo
Protocol: In this model HK-X was administered intranasally for up to 3 months.

[2] = tested on: normal human peripheral blood mononuclear cells; assay: Effects of HK-X on cultures of human peripheral blood mononuclear cells with and without Con A (cell cycle, viability, apoptosis); type: cell-based; conditions: versus vehicle
Protocol: The effects of addition of HK-X (as compared to a control of vehicle without peptide) to cultures of normal human peripheral blood mononuclear cells with and without the plant lectin, Con A, were also evaluated. […] However, HK-X induced apoptosis in a significant population of cells (˜30%) stimulated with Con A as determined by the presence of a sub G0/G1 population in the DNA profile. In cultures where the cells were not stimulated to enter the cell cycle (without Con A), the levels of sub G0/G1 were similar in HK-X treated and control cultures (<7%).

[3] = mouse, in vivo
[4] = HK-X administration to normal mice

Question: For “FITC-HK-X: fluoresceinated HK-X (f-Met-Leu-Phe-Phe) (MLFF; not fully specified; also: FITC label, site not given here)”, which “numbers of FITC-HK-X bound” value [1] is on record?
Answer: roughly equivalent to that of human eosinophils

Question: Which neutrophil function activity (FPR) does the source give for “Met-Met-Trp-Leu-Leu (MMWLL; printed: Met-Met-Trp-Leu-Leu)” here?
Answer: comparable in neutrophil function activity to FMLP

Question: With `CSCC[C@H](NC=O)C(=O)N[C@@H](CC(C)C)C(=O)N[C@@H](Cc1ccccc1)C(=O)N[C@@H](Cc1ccccc1)C(=O)O` [HK-X, f-Met-Leu-Phe-Phe] (For-MLFF-OH) as the compound, how does the “pathological changes in the alveoli, bronchi or vessels” value (inflamed lung) read?
Answer: no pathological changes

Question: And the cell viability [2]?
Answer: did not effect cell viability

Question: And the toxicity [3]?
Answer: no discernable toxicity

Question: What about the “distribution or numbers of nucleated cells of the peripheral blood” value ([4]; 10 μg to 1000 μg per adult mouse) of the same compound?
Answer: no alterations

Question: What about the “numbers of antibody forming cells (PFC), IgM and IgG” value ([4]; mice immunized with sheep red cells, HK-X prior to and after immunization) of the same compound?
Answer: no alteration

Question: What about the “Liver and kidney function” value ([4]; normal mice) of the same compound?
Answer: unaffected

Question: What about the “production of required cytokines” value ([4]; normal mice) of the same compound?
Answer: did not down regulate

Question: And the “proliferation and differentiation of hematopoietic precursors of neutrophils, basophils, monocytes and lymphocytes” value ([4]; normal mice)?
Answer: did not negatively affect
